Experimental findings from US9187773B2, “Method for improving acid tolerance of Propionibacterium acidipropionici” (Jiangnan University, priority 2012, dated 2015) are described below.

Common to all, as to type: cell-based, Propionibacterium acidipropionici
Test [1] has as its system P. acidipropionici. Kind of test: Acid tolerance of P. acidipropionici with amino acid addition (growth in seed medium containing PA). To be noted: for Acid tolerance: seed medium with 2.5-5 g/L PA, 30° C., 40 h; for increase of the acid concentration that P. acidipropionici can tolerate: with addition of the amino acid, versus 2.5 g/L PA without amino acid. Here is the method: The present invention provides a method for improving acid tolerance of P. acidipropionici by adding arginine and/or aspartic acid in the culture.
P. acidipropionici was first inoculated with sterile seed medium in anaerobic jars. The anaerobic jars were incubated at 30° C. for 60 h. To determine the effects of adding amino acids on acid tolerance of P. acidipropionici, the culture broth was transferred into anaerobic jars containing fresh seed medium with 2.5-5 g/L PA, 5-30 mM arginine and/or 5-30 mM aspartic acid added. The strains were then incubated at 30° C. for 40 h.
The P. acidipropionici was bought from China General Microbiological Culture Collection, and the strain code is CGMCC 1.2230.
The seed medium: 10 g/L yeast extract, 5 g/L tryptic soy broth, 1.5 g/L KH2PO4, 2.5 g/L K2HPO4, pH 7.0.
To determine the effects of adding arginine on acid tolerance of P. acidipropionici, the strains were inoculated with an inoculum size of 1% (v/v) into anaerobic jars containing 100 mL sterile seed medium. The anaerobic jars were incubated at 30° C. for 60 hours. And then, the culture broth was transferred into anaerobic jars containing fresh seed medium with 2.5-5 g/L PA and 0-30 mM arginine by an inoculum size of 1% (v/v) and incubated at 30° C. for 40 hours.
To determine the effects of adding aspartic acid on acid tolerance of P. acidipropionici, the strains were inoculated with an inoculum size of 1% (v/v) into anaerobic jars containing (volume: 100 mL) 100 mL sterile seed medium. The anaerobic jars were incubated at 30° C. for 60 hours. And then, the culture broth was transferred into anaerobic jars containing fresh seed medium with 2.5-5 g/L PA and 0-30 mM aspartic acid by an inoculum size of 1% (v/v) and incubated at 30° C. for 40 hours.

Test [2] has as its system P. acidipropionici. In words: PA production of P. acidipropionici with amino acid addition (fermentation, HPLC analysis). To be noted: 30° C., 150 h. Here is the method: To determine the effects of adding amino acids on PA production of P. acidipropionici, P. acidipropionici was inoculated with sterile seed medium in anaerobic jars. The anaerobic jars were incubated at 30° C. for 60 h. The culture broth was then transferred into anaerobic jars containing fresh culture medium. The PA fermentations with culture medium with or without addition of arginine and aspartic acid. The PA fermentations with culture medium without addition of arginine and aspartic acid were used as control.
The culture medium: 10 g/L yeast extract, 5 g/L tryptone, 1.5 g/L KH2PO4, 2.5 g/L K2HPO4, 25 g/L glycerol, 10 mg/L CoCl2, 30 g/L CaCO3, 5-30 mM arginine and/or 5-30 mM aspartic acid, pH 7.0.
To determine the effects of adding arginine on PA production of P. acidipropionici, the strains were inoculated with an inoculum size of 1% (v/v) into anaerobic jars containing 100 mL sterile seed medium. And then the seed culture was inoculated with an inoculum size of 10% (v/v) into anaerobic jars (volume: 100 mL) containing 50 mL culture medium into which certain amount of arginine was added. The anaerobic jars were incubated at 30° C. for 150 h.
Fermentation broth was centrifuged at 8000 rpm for 5 min, and the supernatant liquid was collected for analysis of PA. The supernatant liquid was diluted by 10 times with 3.68 mol/L sulphuric acid and then filtered with 0.22 μm pore size filter. The samples were analyzed by HPLC. As shown in Table 1 and FIG. 2, addition of amino acids increased PA production.
To determine the effects of adding aspartic acid on PA production of P. acidipropionici, the strains were inoculated with an inoculum size of 1% (v/v) into anaerobic jars containing 100 mL sterile seed medium. And then the seed culture was inoculated with an inoculum size of 10% (v/v) into anaerobic jars (volume: 100 mL) containing 50 mL culture medium into which certain amount of aspartic acid was added. The anaerobic jars were incubated at 30° C. for 150 hours.
Fermentation broth was centrifuged at 8000 rpm for 5 min, and the supernatant liquid was collected for analysis of PA. The supernatant liquid was diluted by 10 times with 3.68 mol/L sulphuric acid and then filtered with 0.22 μm pore size filter. The samples were analyzed by HPLC. As shown in Table 2 and FIG. 2, addition of amino acids increased PA production.

Test [3] concerns P. acidipropionici. Described as above.
Setting [4] is: amino acid concentration 10 mM in culture medium.
Setting [5] is: amino acid concentration 20 mM in culture medium.
[6] abbreviates: amino acid concentration 30 mM in culture medium.

With `N=C(N)NCCC[C@H](N)C(=O)O` [Arginine, arginine], the Acid tolerance turned out to be 3 g/L in test [1] (amino acid concentration 10 mM), 4 g/L in test [1] (amino acid concentration 20 mM) and 4 g/L in test [1] (amino acid concentration 30 mM). For the same compound, the “increase of the acid concentration that P. acidipropionici can tolerate” value in test [1] is listed as 60%. The PA production came out at 10.66 g/L in test [2] (setting [4]); 10.60 g/L in test [2] (setting [5]); 13.99 g/L in test [2] (setting [6]); 12.60 g/L in test [3] (30 mM added at the logarithmic phase of fermentation); 10.65 g/L in test [3] (30 mM added at the stable phase of fermentation).

In the case of `N[C@@H](CC(=O)O)C(=O)O` [Aspartic acid, aspartic acid], the figures for the Acid tolerance in test [1] (amino acid concentration 10 mM), in test [1] (amino acid concentration 20 mM) and in test [1] (amino acid concentration 30 mM) were 2.5 g/L, 3 g/L and 3 g/L, respectively. Moreover, in test [1], the “increase of the acid concentration that P. acidipropionici can tolerate” value is reported as 20%. Further, the PA production in test [2] (setting [4]) is 12.54 g/L; in test [2] (setting [5]), 12.97 g/L; in test [2] (setting [6]), 12.87 g/L; in test [3] (20 mM added at the logarithmic phase of fermentation), 12.75 g/L; in test [3] (20 mM added at the stable phase of fermentation), 10.66 g/L.
